Experimental data as given in US20240366607A1, “COMPOSITION FOR PREVENTION OR TREATMENT OF ATOPIC DERMATITIS COMPRISING AKT SIGNALING PATHWAY INHIBITOR AS ACTIVE INGREDIENT” (priority 2021, published 2024).

Columns and labels:
[1] = tested on: NC/Nga mice with induced atopic dermatitis; experiment: HDM-induced atopic dermatitis in NC/Nga mice: skin lesions and SCORAD index; format: in vivo, mouse
Procedure: NC/Nga mice showing clinical and histological phenotypes similar to atopic dermatitis were used. To prepare atopic dermatitis animal models, atopic skin lesions were induced by treating mice with house dust mites (HDM), a representative trigger/aggravator of atopic dermatitis (FIG. 2).
(§1) Atopic skin lesions were induced in NC/Nga mice by treatment with HDM three times a week until 4 weeks after the start of the experiment, and then each mouse was treated with ipatasertib and/or 0.1% dexamethasone (200 μL) three times a week for another four weeks (FIG. 3). Control groups consisted of a non-HDM-treated group (3 animals), a HDM-treated group (3 animals), and a HDM-and 0.1% dexamethasone-treated group (3 animals, positive control group), and experimental groups were administered ipatasertib after HDM treatment. Then, in order to check changes in skin-specific T cells in each animal, single suspensions were prepared using the spleen, skin, and lymph nodes, and T-cells were stained using anti-CD3, anti-CD4, anti-CD8, and CD45 antibodies. Flow cytometry was performed on skin-specific T cells using anti-CD69 and anti-CD103 antibodies, thereby observing the changes in number and distribution of skin-specific T cells by the application of the drug.
To evaluate the effect of ipatasertib administration in NC/Nga mice with induced atopic dermatitis, atopic dermatitis was induced by applying house dust mite (HDM) ointment to the mouse's back three times a week for 4 weeks, and then ipatasertib drug was applied to the mouse's back three times a week for another 4 weeks. […] Each score was obtained by the Wilcoxon signed-rank test, and P<0.05 was considered statistically significant. Three mice per group were tested.

skin-specific T cells = experiment: FACS of T cells using skin immune cells and skin lesions of atopic dermatitis patients; format: cell-based, human
Procedure: To verify the effect of the candidate drug on skin-specific T cells in human skin tissue, a single suspension was prepared using the skin from an atopic dermatitis patient. T cells were stained using anti-CD3, anti-CD4, anti-CD8 and anti-CD45 antibodies, and flow cytometry was performed on skin-specific T cells using anti-CD69 and anti-CD103 antibodies, thereby observing the changes in number and distribution of skin-specific T cells by the application of the drug.

normal skin tissue = experiment: MTT assay, cell viability in normal skin tissue; format: cell-based; conditions: for cell viability: normal skin tissue
Procedure: To determine the final concentration of the drug ipatasertib, normal skin tissue was seeded in a 96-well plate, and treated with ipatasertib at varying concentrations of 1 μM, 10 μM, 50 μM, 100 μM, and 200 μM. The safety and toxicity of the drug to the normal skin tissue were evaluated by measuring the absorbance at 540 nm.

[2] = tested on: skin-specific T cells in the skin; experiment: FACS of skin-specific T cell fractions in skin of atopic dermatitis mouse model; format: in vivo
Procedure: as §1

DF-specific IgE = experiment: Serum total DF-specific IgE by ELISA in atopic dermatitis mouse model; format: in vivo; conditions: 100 μM
Procedure: as §1
(§2) Blood was collected from the mouse heart, and then serum total DF-specific IgE (ng/mL) (A450) was measured in a 96-well plate (Corning Inc., Corning, NY, USA) using the ELISA MAX™ Delux Set (BioLegend, San Diego, CA, USA) kit.
House dust mites are a common cause of allergy, and based on this fact, DF-specific IgE was measured.

[3] = tested on: human T cells in the skin of the avatar mouse; experiment: Human T cell fractions in the skin of the avatar mouse; format: in vivo
Procedure: (§3) PBMCs were obtained from blood samples isolated from atopic dermatitis patients, and then CD3+ T cells, which are pathogenic cells, and CD3-depleted PBMCs, which are antigen-presenting cells, were separated therefrom. Human PBMC cells obtained by this method were injected into an immunodeficient NSG mouse by two different routes of administration. That is, avatar mice were prepared by injecting CD3+ T cells, which are pathogenic cells, through intravenous injection, and CD3-depleted PBMCs through intradermal injection. After the hair on the back of the prepared avatar mouse was shaved, dead skin cells were removed using 3M film once every three days, and 100 mg of house dust mite ointment was applied to the back of the mouse for three weeks. Then, from week 4, the mouse was treated with house dust mite ointment plus ipatasertib to evaluate the therapeutic effect of ipatasertib (FIG. 14A).

[4] = tested on: T cells in skin-draining lymph nodes; experiment: FACS of T cell fractions in skin-draining lymph nodes of atopic dermatitis mouse model; format: in vivo
Procedure: as §1

[5] = tested on: humanized avatar mouse model; experiment: Therapeutic effect in humanized avatar mouse model with HDM-induced atopic dermatitis; format: in vivo; conditions: applied to the back three times a week for one week after three weeks HDM
Procedure: as §3

serum total IgE = experiment: Serum total IgE by ELISA in atopic dermatitis mouse model; format: in vivo
Procedure: as §1, §2
The changes in serum total IgE levels in atopic dermatitis mouse models by ipatasertib treatment were measured. […]

T cells in the spleen = experiment: FACS of T cell fractions in spleen of atopic dermatitis mouse model; format: in vivo
Procedure: as §1

[6] = tested on: skin tissue of NC/Nga mice; experiment: H&E staining of skin tissue of HDM-treated NC/Nga mice (eosinophil count, epidermal thickness); format: in vivo, mouse
Procedure: Data are expressed as mean±standard deviation (SD). **P<0.01, *P<0.05.
as §1
Patients with allergic diseases often have a blood eosinophil count that increased by more than 5%, and based on this fact, eosinophils were counted by hematoxylin and eosin (H&E) staining. […] In addition, when atopic dermatitis occurs, the skin thickens due to an excessive inflammatory response.

[7] = 100 μM, compared to 0.1% dexamethasone group

`CC(C)NC[C@@H](C(=O)N1CCN(c2ncnc3c2[C@H](C)C[C@H]3O)CC1)c1ccc(Cl)cc1` [ipatasertib] was tested, and the “recovery of skin lesions” value ([1]; 100 μM, applied to the back three times a week for 4 weeks) was “most notable recovery”, the “scoring atopic dermatitis (SCORAD) index” value [1, 7] was “lower SCORAD index than the 0.1% dexamethasone-administered group” and the “therapeutic effect on atopic dermatitis skin lesions” value ([1]; applied to the back three times a week for 4 weeks after 4 weeks HDM) was “significant therapeutic effect was observed in a drug concentration-dependent manner”. For the same compound, the “wounds, dryness, and shedding” value ([1]; compared to positive control 0.1% dexamethasone) was “significantly reduced compared to the positive control group administered 0.1% dexamethasone”, the “scoring atopic dermatitis (SCORAD) index” value ([1]; ipatasertib-administered groups, three mice per group) was “significantly decreased” and the “proportion of skin-specific T cells” value (skin-specific T cells; 50 μM) was “significantly decreased”. The “proportion of skin-specific T cells” value (skin-specific T cells; 100 μM) was “significantly decreased”, the cell viability (normal skin tissue; 50 μM) was ≥ 90% and the cell viability (normal skin tissue; 100 μM) was ≥ 90%. The “toxicity in normal skin tissue” value (normal skin tissue; up to 100 μM) was “no significant toxicity”, the “proportions of CD3+, CD4+, CD69+, and CD103+ skin-specific T cells” value ([2]; 50 μM, skin) was “significantly decreased” and the “proportions of CD3+, CD4+, CD69+, and CD103+ skin-specific T cells” value ([2]; 100 μM, skin) was “significantly decreased”. The “CD69+ T cells and CD103+ T cells” value ([2]; skin tissues of the ipatasertib groups) was “statistically significantly decreased”, the “proportions of skin-specific T cells” value ([2]; skin, compared to 0.1% dexamethasone-treated group) was “significantly decreased even compared to that in the 0.1% dexamethasone-treated group” and the “total DF-specific IgE level” value (DF-specific IgE) was “significantly decreased”. The “total DF-specific IgE level” value (DF-specific IgE; compared to 0.1% dexamethasone group) was “significantly decreased even compared to that in the 0.1% dexamethasone group”, the “proportion of human CD3 T cells” value ([3]; 100 μM, compared to control group) was “significantly decreased compared to that in the control group” and the “proportions of human CD8 and CD4 cells” value ([3]; drug-treated group) was “significantly lower”. The “fraction of T cells expressing CD69 among CD3+ CD4+ T cells” value [4] was “tended to decrease”, the “fraction of CD3+ CD4+ CD103+ T cells” value ([4]; 100 μM) was “statistically significantly lowest” and the “proportion of CD3+ T cells” value ([4]; 100 μM) was “lowest proportion of CD3+ T cells”. The “therapeutic effect against atopic dermatitis” value [5] was “clinically significant therapeutic effect”, the “decrease in the total serum IgE level” value (serum total IgE; [7]) was “significantly greater” and the “serum total IgE level” value (serum total IgE; ELISA, ipatasertib groups up to 100 μM) was “decreased in a dose-dependent manner”. The “CD69+ T cells and CD103+ T cells” value (T cells in the spleen) was “decreased statistically significantly”, the “proportion of CD3+ and CD4+ T cells” value (T cells in the spleen) was “decreased in a dose-dependent manner” and the eosinophil count [6] was “decreased depending on the ipatasertib concentration”. The epidermal thickness [6] was “decreased as the concentration of ipatasertib increased”.
